Test results from US4845233A, “Imidazolin-2-ones” (IPRX, Inc., priority 1987, dated 1989).

How the values were obtained:
[1] = in vitro transdermal penetration of indomethacin from petrolatum ointment through shed snake skin, vertical diffusion cell; format: in vitro ADME, Elaphe obsoleta (black rat snake); details: for Relative Penetration: 5% enhancer in ointment, indomethacin, slope relative to Azone = 100%
Procedure: Ointments were prepared by mixing 1% indomethacin, 5% dermal penetration enhancer and 94% petrolatum at 55°-60° C. to give a homogeneous dispersion of indomethacin. In the cases where the enhancers are liquid the indomethacin and the enhancer were first mixed well and then followed by the incorporation of the petrolatum. The mixture was melted at 55°-60° C. and stirred until a homogeneous ointment was obtained. For low melting enhancers, the enhancer and the indomethacin were melted together and mixed in a water-bath followed by the incorporation of petrolatum. For high melting enhancers, it was necessary to mix the components in an agate mortar.
A whole shed snake skin from the molt of adult Elaphe obsoleta (black rat snake) was obtained from the Animal Care Unit of the University of Kansas. Only the dorsal side of the shed snake skin was used for in vitro penetration studies. The head and tail sections of the snake skin was removed and the remainder of the skin was cut randomly into sections of approximately 2 inches by 2 inches. Each piece of snake skin was hydrated overnight by first soaking the skin in water (about 5 to 10 min) until it could be stretched and then it was placed on a plastic pan which held some water. The pan was floated on a water-bath of 32° C. overnight.
Approximately 30 mg of ointment as prepared as described in Example 23 was smeared evenly on an area of the 2"×2" snake skin. The ointment was smeared into an essentially circular area approximately 1.77 cm^2 and having a diameter of approximately 15 mm. The snake skin was then mounted on top of the receptor cell of a verticle diffusion cell assembly in which a small magnetic bar was inserted and filled with an isotonic buffer. A rubber o-ring was placed on top of the skin followed by the placement of the donor cell. The two cells were clamped together and transferred to a water-bath (32° C.) which had several magnetic stirrers placed underneath to stir the contents of the diffusion cells. Samples from the cells were withdrawn periodically by gravity by inputing fresh isotonic buffer into the cells inlets. The first five drops were discarded and the following four drops were collected for analysis. These nine drops of sample solution were approximately equivalent to about 0.20 ml.
The samples were analyzed for the concentration of indomethacin using either a Spectroflow 783 programmable absorbance detector or a Perkin-Elmer ISS-100 HPLC apparatus with a Perkin-Elmer LC9 UV spectrophotometric detector and a Perkin-Elmer ISS-100 automatic sampler with the detection wavelength set at 260 nm. A reverse phase column, RP-8 Spheri-5, 4.6×100 mm and a guard tube OD-GU, purchased from Brownlee Labs, were used in conjunction with the HPLC system. The flow rate was 1.0 ml/min and the solvent system was a mixture of acetonitrile (50%) and a 0.01M phosphate buffer (pH 3.0) (50%).
The concentration in each sample was interpreted from a standard curve which was obtained by plotting the peak areas obtained from HPL chromatograms versus four different standard solutions of indomethacin. The standard curves were linear over a range of concentrations from 2.5 to 10 ug/ml. The receptor cell volume was calibrated by weighing the amount of water in the cell. The first sample needs no concentration correction. However, the concentration in the subsequent samples can be corrected by the following equation [formula] where xi is a member of microgram of indomethacin in the i^th sample. Also, the volume withdrawn for each sampling is about 0.20 ml. Yi is the concentration correction for i-1 sample.
The foregoing results were obtained by using 5% of the transdermal penetration enhancer in the ointment. […] Thus, Table III primarily reflects the transdermal penetration data of […] from ointments of 94% petrolatum and 5% enhancer. In Run No. 14, Azone was selected as the standard for comparison since it is claimed to be an excellent enhancer although it is too toxic. […]

[2] = as above; format: in vitro ADME, Elaphe obsoleta (black rat snake); details: * 10% enhancer in ointment, slope relative to Azone = 100%
[3] = intraperitoneal; cited from earlier work
Swiss white mice [4] = test: Chronic Toxicity Study, subcutaneous daily for 14 days; format: in vivo; details: 1000 mg/Kg daily for 14 days
Procedure: The compound identified in Example 25 and represented as Run No. 3 in Table III, was also evaluated for chronic toxicity. Six Swiss white mice were injected subcutaneously at a dose of 1000 mg/Kg daily for 14 days. A sample dispersion of 400 mg/4.0 ml was prepared by dispersing the soft enhancer in a powder form in a 2% Tween 80 saline solution. The homogeneous dispersion was obtained by vortexing the material in a conical flask in which a plastic ball was placed. Sample dispersion was prepared alternative day in order to avoid serious contamination. Prior to injection the dispersion was shaken and withdrawn into a sterile graduated 1 cc TB syring (readable to 0.05 ml). Sterile hypodermic needles (25.4 mm) were required for injecting the dispersion. The control mice were injected an equivalent volume of the 2% Tween 80 suspension in saline. The suspension was prepared on an alternative day to avoid serious contamination. […] Two mice injected with the sample and one from the control were sacrificed and dissected for examination. For the control mouse, there was no obvious damage to the tissue and the internal organs. […] The mice were maintained for a period of 39 days during which time one mouse was sacrificed to check for the presence of the yellowish material.

Swiss white mice [5] = details: mouse, in vivo, sc, 1000 mg/kg

| Compound | Relative Penetration [1] | further results |
| --- | --- | --- |
| 1-Methyl-4-imidazolin-2-one-3-propylenedodecanoate [Run No. 5] |  | penetration enhancement of indomethacin versus Azone (FIG. 1) ([1]; within the first 24 hours): well above that of the standard Azone |
| CCCCCCCCCCCC(=O)OC(C)Cn1ccn(C)c1=O (centres unmarked) [compound 1] | 120-200% |  |
| CCCCCCCCCC(=O)OCn1ccn(C)c1=O [compound 11] | 10% |  |
| CCCCCCCCCCCCCC(=O)OC(C)n1ccn(CC)c1=O (stereo not drawn) [Run No. 7, 1-ethyl-4-imidazolin-2-one-3-α-ethyltetradecanoate] | 50% |  |
| CCCCCCCCCCCCCC(=O)OC(C)Cn1ccn(C)c1=O (centres unmarked) [compound 2] | 70% |  |
| CCCCCCCCCCOC(=O)OCn1ccn(C)c1=O [Run No. 9] | 15% |  |
| CCCCCCCCCCCC(=O)OCCCn1ccn(C)c1=O [compound 5] | 100% |  |
| CCCCCCCCCCCCCCOC(=O)OCn1ccn(C)c1=O [Run No. 10] | 10% |  |
| CCCCCCCCCCCC(=O)OC(C)n1ccn(C)c1=O (centres unmarked) [compound 4] | 60% | Relative Penetration [2]: 40% |
| CCCCCCCCCCCCN1CCCCCC1=O [Azone, 1-Dodecylazacycloheptane-2-One, reference compound] | 100% | LD50 [3]: approximately 232 mg/kg |
| CCCCCCCCCCCCCC(=O)OC(C)n1ccn(C)c1=O (centres unmarked) [compound 3] | 80-100% | damage to internal organs (dissection) (Swiss white mice [4]): no obvious damage to the internal organs was seen; injection site finding (dissection) (Swiss white mice [4]): a substantial amount of yellowish material was found on the injection site; yellowish material at injection site at follow-up (Swiss white mice [4]; after 39 days): The yellowish material disappeared after 39 days; damage to internal organs and tissue at the injection site (dissection) (Swiss white mice [5]): no obvious damage to the internal organs and tissue at the injection site; Relative Penetration [2]: 50% |
| CCCCCCCCCCCC(=O)OCCn1ccn(C)c1=O [compound 6] | 60% |  |
| CCCCCCCCCCCCOC(=O)OCn1ccn(C)c1=O [compound 8] | 50% |  |
| CCCCCCCCCC(=O)OC(C)Cn1ccn(C)c1=O (centres unmarked) [compound 13] | 50% |  |
| CCCCCCCCCCCC(=O)OCn1ccn(C)c1=O [Run No. 12, 1-Methyl-4-imidazolin-2-one-3-methylenedodecanoate] | 10% | Relative Penetration [2]: 20% |
